According to patent publication US11541029B2, “High penetration compositions and their applications” (Techfields Pharma Co., Ltd., priority 2008, dated 2023):
In brackets after ≈: the same amount, converted by molar mass. Counter-ions that a name gives are not always drawn. Like-named read-outs stand apart in the source and are kept apart here. Non-standard residues stand in square brackets, D forms with d. *: point of attachment. Arg(NO2) = N=C(NCCC[C@H](N)C(=O)O)N[N+](=O)[O-]; OCH2CH2CH2CH3 = CCCCO*

How the values were obtained:
[1] = tested on: methicillin-resistant Staphylococcus aureus (MRSA); assay: Minimum inhibitory concentrations (MICs); assay type: cell-based
Protocol: Minimum inhibitory concentrations (MICs) of the antimicrobials and their HPCs were assessed according to Jennifer M. Andrews, Journal of Antimicrobial Chemotherapy 48, suppl. S1, 5-16 (2001). […] The test compounds are: 6-phenoxyacetacetamidopenicillanic acid 1-piperidineethyl ester hydrochloride (penicillin V-PEE), penicillin V, 6-(2,6-dimethoxybenzamido)penicillinic acid 2-pyrrolidinemethyl ester hydrochloride (methicillin-PME), methicillin, 7-[[(2-acetylamino-4-thiazolyl)(methoxyimino)acetyl]amino]-8-oxo-5-thia-1-azabicyclo[4.2.0]oct-2-ene-2-carboxylic acid 2-diethylaminoethyl ester hydrochloride (ceftizoxime-DEE), and ceftizoxime).

[2] = tested on: eyelashes and hairs; assay: Stimulation of hair growth and eyelash growth by HPCs of prostaglandins; assay type: in vivo; conditions: about 1 ml of 1% in pure water on head skin, more than 1 month
[3] = tested on: eyelashes and hairs; assay: as above; assay type: in vivo; conditions: about 0.2 ml of 1% in pure water near the eyelashes, more than 1 month
Protocol: (§1) About 0.2 ml of 1% of HPC of N,N-diethylaminoethyl 11,15-dihydroxy-9-oxoprost-13-en-1-oate.HBr (the HPC of prostaglandin E1), N,N-diethylaminoethyl (Z)-7-{[(1R,2R,3R,5S)-3,5-Dihydroxy-2-[1E,3S]-3-hydroxy-5-phenyl-1-pentenyl]cyclopentyl}-5-N-ethylheptenoate.HBr(the HPC of bimatoprost), (13,14-dihydro-17-phenyl-18,19,20-trinor PGF2αN,N-diethylaminoethyl ester, N,N-diethylaminoethyl (Z)-7-[(1R,2R,3R,5S)-3,5-dihydroxy-2-[(1E,3R)-3-hydroxy-4-[(α,α,α-trifluoro-m-tolyl)oxy]-1-butenyl]cyclopentyl]-5-heptenoate.HBr, or 13,14-dihydro-15-keto-20-ethyl PGF2αN,N-diethylaminoethyl ester in pure water is applied to the skin area close to the eyelashes (0.1 ml solution for each eye).
as §1, with “1” for “0.2”, “(frontal and parietal areas) on” for “area close to”, “head skull.” for “eyelashes (0.1 ml solution for each eye).”

[4] = tested on: Human breast cancer cells (BCAP-37); assay: Human breast cancer xenograft in nude mice
Protocol: Human breast cancer cells (BCAP-37, 2-3 mm^3 of tumor tissue was used in each mouse) were subcutaneously xenografted into nude mice (BALB, 12 groups, 7 mice each group). […] 50 μl of 5% (equal to 2.5 mg of the HPCs) diethylaminoethyl acetylsalicylate.HCl (P-1, in pure water); 1-piperidinepropyl 2[(2,6-dichlorophenyl)amino]benzene acetate.HCl (P-2, in water), 1-pyrrolidinepropyl 2-(3-benzoylphenyl) propionate.HCl (P-3, in water), 4-piperidinemethyl 2-(3-phenoxyphenyl)propionate.HCl (P-4, in water), 3-piperidinemethyl 2-(ρ-isobutylphenyl) propionate.HCl (P-5, in water), diethylaminoethyl 1-(p-chlorobenzoyl)-5-methoxy-2-methylindole 3-acetate.HCl (P-11, in water), 2-(4-morpholinyl)ethyl (Z)-5-fluoro-2-methyl-1-[(4-methylsulfinyl)phenylmethylene]-1H-indene-3-acetate.

[5] = tested on: Human colon cancer cells (LS174J); assay: Human colon cancer xenograft in nude mice
From the text: Human colon cancer cells (LS174J, 2-3 mm^3 of tumor tissue was used in each mouse) were subcutaneously xenografted into nude mice (BALB).

[6] = tested on: lesions similar to psoriasis generated by Malassezia; assay: Anti-psoriasis activity, Malassezia-induced lesions; assay type: in vivo, Chinese white rabbits; conditions: HPC 5% aq. applied to the lesion areas twice per day
Protocol: Heavy suspensions of Malassezia [Rosenberg, E. W., et al., Mycopathologia, 72, 147-154 (1980)] were applied to the shaved skin on the backs of Chinese white rabbits (n=4×6) twice (at […]) per day for 2 weeks to generate lesions similar to psoriasis. HPCs (5%, aq.) were applied to the same areas 3 hours (10 am and 6 pm) after the application of Malassezia (7 am and 3 pm). […] HCl, diethylaminoethyl 1,8-diethyl-1,3,4,9-tetrahydropyrano-[3,4-b]indole-1-acetate.HCl, diethylaminoethyl 2-amino-3-(4-bromo-benzoyl)benzeneacetate.HCl, diethylaminoethyl 3-chloro-4-(2-propenyloxy)benzeneacetate. HCl, diethylaminoethyl 1-(4-chlorobenzoyl-5-methoxy-2-methyl-1H-indole-3-acetoxyacetate. HCl, diethylaminoethyl 4-(4-chlorophenyl)-2-phenyl-5-thiazoleacetate.HCl, and diethylaminoethyl 3-(4-chlorophenyl)-1-phenyl-1H-pyrazole-4-acetate.HCl

[7] = tested on: Hypertension patients; assay: Anti-hypertensive effect of transdermal atenolol HCl salt in patients; assay type: in vivo, human
Protocol: 20 Hypertension patents were divided to 2 groups. Group A was control group (n=10, 1 ml of water was administrated to the chest of patients once per day) and group B was atenolol treated group (n=10, 100 mg of atenolol HCl salt was administrated to the chest of patients once per day).

[8] = tested on: MPTP-induced Parkinson's disease mice; assay: Anti-Parkinson's disease activity in MPTP-induced mice; conditions: mouse, in vivo
Protocol: Group A mice were ip injected 0.4% sodium carboxymethylcellulos (15 ml/kg per day) for 7 days. Group B and C mice were ip injected N-methyl-4-phenyl-1,2,3,6-tetrahydropyridine (MPTP, 30 mg/kg per day) for 7 days. The mice were divided into 2 groups. […] All mice were killed after the last treatment and the brain tissues were quickly freezed at −80° C. […] The contents of malondialdehyde (MDA) in the SN were measured with the thiobarbituric acid-reaction to indicate the LPO, and contents of glutathione (GSH) in the substantia nigra (SN) were based on the dithionitrobenzonic acid (DTNB) determination. The contents of GABA and Glu in the striatum and SN were shown by high performance amino acid auto-analyser.

[9] = tested on: carrageenin-induced swelling of rat hind paw; assay: Anti-inflammatory activity, carrageenin paw swelling; assay type: in vivo, rats
[10] = tested on: Female Sprague Dawley (SD) rats; assay: Anti-obesity in Sprague Dawley rats; assay type: in vivo
Protocol: 20 Female Sprague Dawley (SD) rats (20 weeks old, 320-345 g) were divided into 2 groups. In group A, 0.2 ml of water was administered to the back of rat (n=10) twice per day for 30 days. In Group B, 10 mg/kg of H-Val-Pro-Gly-Pro-Arg(NO2)—OCH2CH2CH2CH3.HCl in 0.2 ml of water was administered transdermally to the backs of rats (n=10) twice per day for 30 days.

[11] = tested on: obese DB/DB mice (SLAC/DB/DB); assay: Anti-obesity in obese mice (SLAC/DB/DB); assay type: in vivo
Protocol: 20 obese DB/DB mice (SLAC/DB/DB) mice (16 weeks old, 55-60 g) were divided into 2 groups. In group A, 0.1 ml of water was administered to the back of mouse (n=10) twice per day for 30 days. In Group B, 15 mg/kg of H-Val-Pro-Gly-Pro-Arg(NO2)—OCH2CH2CH2CH3.HCl in 0.2 ml of water was administered transdermally to the backs of rats (n=10) twice per day for 30 days.

[12] = 100 mg to the chest once per day, n=10
[13] = 10 mg/kg transdermally twice per day for 30 days
[14] = 15 mg/kg transdermally twice per day for 30 days

Molecule: CCN(CC)CCOC(=O)C1=CCSC2C(NC(=O)C(=NOC)c3csc(NC(C)=O)n3)C(=O)N12.Cl (stereo not shown) [ceftizoxime-DEE, 7-[[(2-acetylamino-4-thiazolyl)(methoxyimino)acetyl]amino]-8-oxo-5-thia-1-azabicyclo[4.2.0]oct-2-ene-2-carboxylic acid 2-diethylaminoethyl ester hydrochloride]
- MIC ([1]; read-out: MIC): 2.5 µg/mL

Molecule: CO/N=C(\C(=O)N[C@@H]1C(=O)N2C(C(=O)O)=CCS[C@H]12)c1csc(N)n1 [ceftizoxime, reference compound]
- MIC ([1]; read-out: MIC): 986 µg/mL (≈ 2.57 mM)

Molecule: CCN(CC)CCOC(=O)CCC/C=C\C[C@@H]1[C@@H](CC[C@@H](O)CCc2ccccc2)[C@H](O)C[C@@H]1O [(13,14-dihydro-17-phenyl-18,19,20-trinor PGF2αN,N-diethylaminoethyl ester]
- hair growth [2]: grow longer and fuller
- eyelash growth [3]: grow longer and fuller

Molecule: COc1cccc(OC)c1C(=O)N[C@@H]1C(=O)N2[C@@H]1SC(C)(C)[C@@H]2C(=O)O [methicillin, reference compound]
- MIC ([1]; read-out: MIC): 1160 µg/mL (≈ 3.04 mM)

Molecule: Br.CCN(CC)CCOC(=O)CCC/C=C\C[C@@H]1[C@@H](/C=C/[C@@H](O)COc2cccc(C(F)(F)F)c2)[C@H](O)C[C@@H]1O [N,N-diethylaminoethyl (Z)-7-[(1R,2R,3R,5S)-3,5-dihydroxy-2-[(1E,3R)-3-hydroxy-4-[(α,α,α-trifluoro-m-tolyl)oxy]-1-butenyl]cyclopentyl]-5-heptenoate.HBr]
- hair growth [2]: grow longer and fuller
- eyelash growth [3]: grow longer and fuller

Molecule: Br.CCCCCC(O)C=C[C@H]1C(O)CC(=O)[C@@H]1CCCCCCC(=O)OCCN(CC)CC (stereo partly shown) [HPC of prostaglandin E1, N,N-diethylaminoethyl 11,15-dihydroxy-9-oxoprost-13-en-1-oate.HBr]
- hair growth [2]: grow longer and fuller
- eyelash growth [3]: grow longer and fuller

Molecule: Br.CCN(CC)CCOC(=O)CCC/C=C\C[C@@H]1[C@@H](/C=C/[C@@H](O)CCc2ccccc2)[C@H](O)C[C@@H]1O [HPC of bimatoprost, N,N-diethylaminoethyl (Z)-7-{[(1R,2R,3R,5S)-3,5-Dihydroxy-2-[1E,3S]-3-hydroxy-5-phenyl-1-pentenyl]cyclopentyl}-5-N-ethylheptenoate.HBr]
- hair growth [2]: grow longer and fuller
- eyelash growth [3]: grow longer and fuller

Molecule: CC(C)Cc1ccc(C(C)C(=O)OCC2CCCNC2)cc1.Cl (stereo not shown) [P-5, 3-piperidinemethyl 2-(ρ-isobutylphenyl) propionate.HCl]
- tumor Size at day 42 ([4]; 50 μl of 5% topically every 8 hours): 180 ± 55 mm^3
- Weight of mice at day 42 ([4]; in vivo): 23 ± 2
- tumor Size at day 30 ([5]; about 50 μl of 5% topically every 12 hours): 520 ± 140 mm^3
- Weight of mice at day 30 ([5]; in vivo): 23 ± 2
- time until lesions healed after the application [6]: 10 days

Molecule: CC(C)NCC(O)COc1ccc(CC(N)=O)cc1 (stereo not shown) [atenolol HPC, atenolol HCl salt]
- side effect ([7]; 100 mg in 1 ml of pure water per day transdermally): without side effect of hypotention
- Blood Pressure (before treatment), first figure of the pair [7, 12]: 160 ± 22 mmHg
- Blood Pressure (before treatment), second figure of the pair [7, 12]: 110 ± 20 mmHg
- Blood pressure (2 weeks after treatment), first figure of the pair [7, 12]: 128 ± 15 mmHg
- Blood pressure (2 weeks after treatment), second figure of the pair [7, 12]: 81 ± 12 mmHg

Molecule: CCCCCCCC(=O)CC[C@@H]1[C@@H](C/C=C\CCCC(=O)OCCN(CC)CC)[C@@H](O)C[C@H]1O [13,14-dihydro-15-keto-20-ethyl PGF2αN,N-diethylaminoethyl ester]
- hair growth [2]: grow longer and fuller
- eyelash growth [3]: grow longer and fuller

Molecule: COc1cccc(OC)c1C(=O)NC1C(=O)N2C1SC(C)(C)C2C(=O)OCC1CCCN1.Cl (stereo not shown) [methicillin-PME, 6-(2,6-dimethoxybenzamido)penicillinic acid 2-pyrrolidinemethyl ester hydrochloride]
- MIC [1]: 19 µg/mL

Molecule: NC(=O)C[S+]([O-])C(c1ccccc1)c1ccccc1 (stereo not shown) [modafinil, reference compound]
- effect on the increase of nigrostriatal Glu release induced by MPTP [8]: did not change the increase of nigrostriatal Glu release induced by MPTP

Molecule: CCN(CC)CCOC(=O)C(C)c1ccc(CC(C)C)cc1.O=C(O)CC(O)(CC(=O)O)C(=O)O (stereo not shown) [diethylaminoethyl 2-(p-isobutylphenyl)propionate.citric acid]
- anti-inflammatory activity (rate of swelling) compared with ibuprofen ([9]; 20 mg/kg (2×10 mg) transdermally): much stronger than that of 100 mg/kg of ibuprofen (oral)
- anti-inflammatory activity (rate of swelling) compared with ibuprofen ([9]; 50 mg/kg orally): much stronger than that of 100 mg/kg of ibuprofen (oral)

Molecule: CC1(C)S[C@@H]2[C@H](NC(=O)COc3ccccc3)C(=O)N2[C@H]1C(=O)O [penicillin V, reference compound]
- MIC [1]: 1824 µg/mL (≈ 5.21 mM)

Molecule: CC1(C)SC2C(NC(=O)COc3ccccc3)C(=O)N2C1C(=O)OCCN1CCCCC1.Cl (stereo not shown) [penicillin V-PEE, 6-phenoxyacetacetamidopenicillanic acid 1-piperidineethyl ester hydrochloride]
- MIC [1]: 12 µg/mL

Molecule: H-Val-Pro-Gly-Pro-Arg(NO2)—OCH2CH2CH2CH3.HCl (H-VPGP[Arg(NO2)]-OCH2CH2CH2CH3; also: HCl salt)
- Food intake (per day & per rat) [10, 13]: 17.5 ± 1.2
- Weight (Day1) [10, 13]: 333.5 ± 4.2 g
- Weight (Day 30) [10, 13]: 301.4 ± 3.7 g
- control group heavier than the peptide treated group ([10]; rat, in vivo): about 17%
- Food intake (per day & per rat) [11, 14]: 3.9 ± 0.3
- Weight (Day1) [11, 14]: 57.1 ± 1.8 g
- Weight (Day 30) [11, 14]: 53.4 ± 4.7 g
- control group heavier than the peptide treated group ([11]; mouse, in vivo): about 26%
